In brackets after ≈: the same amount, converted by molar mass.
Key:
[1] = system: Streptococcus pyogenes (Isolate ID ATCC 51339); experiment: Antibacterial activity, MIC, S. pyogenes; assay type: cell-based; details: Streptococcus pyogenes, ATCC51339, Gram positive strain; broth microdilution or agar dilution
Method in brief: (§1)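 Per CLSI standard M7-A7, minimum inhibitory concentrations were measured by agar dilution or by broth microdilution.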

physchem = details: kinetic from dmso stock
Method in brief: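 DMSO doubling dilutions were diluted twenty-fold into 100 mM citrate (pH 4), PBS (pH 7.4) or carbonate-bicarbonate (pH 9). After 24 h equilibration at room temperature, absorbance was read at 620 nm. The reported value is the highest concentration without measurable precipitate.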

[2] = system: Staphylococcus aureus (Isolate ID ATCC 29213); experiment: Antibacterial activity, MIC, S. aureus; assay type: cell-based; details: Staphylococcus aureus, ATCC29213, Gram positive strain; broth microdilution or agar dilution
Method in brief: as §1

[3] = system: Haemophilus influenzae (Isolate ID ATCC 49247); experiment: Antibacterial activity, MIC, H. influenzae; assay type: cell-based; details: Haemophilus influenzae, ATCC49247; Gram negative strain; broth microdilution or agar dilution
Method in brief: as §1

[4] = system: Enterococcus faecalis (Isolate ID ATCC 29212); experiment: Antibacterial activity, MIC, E. faecalis; assay type: cell-based; details: Enterococcus faecalis, ATCC29212; Gram positive strain; broth microdilution or agar dilution
Method in brief: as §1

[5] = pH 7.4, aqueous buffer, Max Solubility
[6] = pH 7.4, aqueous buffer, Solubility (pH 7.4)
[7] = pH 7.4, aqueous buffer, Solubility Range
[8] = pH 7.4, aqueous buffer, Solubility Range (maximum solubility)
[9] = pH 9, aqueous buffer, Max Solubility
[10] = pH 9, aqueous buffer, Solubility Range (maximum solubility)

SMILES | MIC [1] | solubility at 24 h (physchem; [5]) | solubility at 24 h (physchem; [6]) | solubility at 24 h (physchem; [7]) | solubility at 24 h (physchem; [8]) | MIC [2] | MIC [3] | MIC [4] | solubility at 24 h (physchem; [9]) | solubility at 24 h (physchem; [10])
CCNC(=O)Nc1nc2cc(-c3cnc(N4CCC(C)(C(=O)O)CC4)nc3)cc(C3CCN(C(C)=O)CC3)c2s1 [Compound 74, 1-[5-[7-(1-acetyl-4-piperidyl)-2-(ethylcarbamoylamino)-1,3-benzothiazol-5-yl]pyrimidin-2-yl]-4-methyl-piperidine-4-carboxylic acid] | 1 to 16 µg/mL (≈ 1.77 to 28.3 µM) | ≥ 800 µg/mL | ≥ 800 µg/mL | > 800 µg/mL | > 800 µg/mL | > 16 µg/mL | > 16 µg/mL | 1 to 16 µg/mL (≈ 1.77 to 28.3 µM) | – | –
CCNC(=O)Nc1nc2cc(-c3cnc(N4CCC(C)(C(=O)O)CC4)nc3)cc(-c3cnc(N(C)C)s3)c2s1 [Compound 75] | 0.25 to 1 µg/mL (≈ 0.441 to 1.76 µM) | – | 25 µg/mL (≈ 44.1 µM) | 12.5 to 400 µg/mL (≈ 22.1 to 706 µM) | – | 0.25 to 1 µg/mL (≈ 0.441 to 1.76 µM) | 1 to 16 µg/mL (≈ 1.76 to 28.2 µM) | ≤ 0.25 µg/mL | 100 µg/mL (≈ 176 µM) | 12.5 to 400 µg/mL (≈ 22.1 to 706 µM)
CCNC(=O)Nc1nc2cc(-c3cnc(N4CCC(C)(C(=O)O)CC4)nc3)cc(-c3cnc(N4CCOCC4)s3)c2s1 [Compound 76] | 0.25 to 1 µg/mL (≈ 0.411 to 1.64 µM) | ≥ 800 µg/mL | ≥ 800 µg/mL | > 800 µg/mL | > 800 µg/mL | 1 to 16 µg/mL (≈ 1.64 to 26.3 µM) | > 16 µg/mL | ≤ 0.25 µg/mL | – | –
CCNC(=O)Nc1nc2cc(-c3cnc(N4CCC(C)(C(=O)O)CC4)nc3)cc(-c3cnc(CC)s3)c2s1 [Compound 77] | ≤ 0.25 µg/mL | – | 200 µg/mL (≈ 363 µM) | 12.5 to 400 µg/mL (≈ 22.7 to 725 µM) | – | ≤ 0.25 µg/mL | 1 to 16 µg/mL (≈ 1.81 to 29 µM) | ≤ 0.25 µg/mL | 400 µg/mL (≈ 725 µM) | 400 to 800 µg/mL (≈ 725 to 1450 µM)
CCNC(=O)Nc1nc2cc(-c3cnc(N4CCC(C)(C(=O)O)CC4)nc3)cc(-c3cnc(OCC)s3)c2s1 [Compound 78] | 0.25 to 1 µg/mL (≈ 0.44 to 1.76 µM) | – | 400 µg/mL (≈ 705 µM) | 400 to 800 µg/mL (≈ 705 to 1410 µM) | – | 0.25 to 1 µg/mL (≈ 0.44 to 1.76 µM) | > 16 µg/mL | ≤ 0.25 µg/mL | ≥ 800 µg/mL | > 800 µg/mL
CCNC(=O)Nc1nc2cc(-c3cnc(N4CCC(C)(C(=O)O)CC4)nc3)cc(-c3ccn(C)c(=O)c3)c2s1 [Compound 79] | 1 to 16 µg/mL (≈ 1.83 to 29.2 µM) | ≥ 800 µg/mL | ≥ 800 µg/mL | > 800 µg/mL | > 800 µg/mL | > 16 µg/mL | > 16 µg/mL | 1 to 16 µg/mL (≈ 1.83 to 29.2 µM) | – | –
CCNC(=O)Nc1nc2cc(-c3cnc(N4CCC(C)(C(=O)O)CC4)nc3)cc(-c3cc(=O)n(CCOC)cn3)c2s1 [Compound 80] | 1 to 16 µg/mL (≈ 1.69 to 27 µM) | 400 µg/mL (≈ 675 µM) | 400 µg/mL (≈ 675 µM) | 400 to 800 µg/mL (≈ 675 to 1350 µM) | 400 to 800 µg/mL (≈ 675 to 1350 µM) | > 16 µg/mL | 1 to 16 µg/mL (≈ 1.69 to 27 µM) | 1 to 16 µg/mL (≈ 1.69 to 27 µM) | – | –
CCNC(=O)Nc1nc2cc(-c3cnc(N4CCC(C)(C(=O)O)CC4)nc3)cc(-c3cncc(OC)n3)c2s1 [Compound 81] | ≤ 0.25 µg/mL | – | 200 µg/mL (≈ 365 µM) | 12.5 to 400 µg/mL (≈ 22.8 to 729 µM) | – | ≤ 0.25 µg/mL | 1 to 16 µg/mL (≈ 1.82 to 29.2 µM) | ≤ 0.25 µg/mL | 400 µg/mL (≈ 729 µM) | 400 to 800 µg/mL (≈ 729 to 1460 µM)
CCNC(=O)Nc1nc2cc(-c3cnc(N4CCC(C)(C(=O)O)CC4)nc3)cc(-c3ccc(CC#N)cn3)c2s1 [Compound 82] | ≤ 0.25 µg/mL | – | 200 µg/mL (≈ 359 µM) | 12.5 to 400 µg/mL (≈ 22.5 to 719 µM) | – | ≤ 0.25 µg/mL | 0.25 to 1 µg/mL (≈ 0.449 to 1.8 µM) | ≤ 0.25 µg/mL | ≥ 800 µg/mL | > 800 µg/mL
CCNC(=O)Nc1nc2cc(-c3cnc(N4CCC(C)(C(=O)O)CC4)nc3)cc(-c3cnc(CC)cn3)c2s1 [Compound 83] | ≤ 0.25 µg/mL | – | 200 µg/mL (≈ 366 µM) | 12.5 to 400 µg/mL (≈ 22.9 to 732 µM) | – | ≤ 0.25 µg/mL | 0.25 to 1 µg/mL (≈ 0.457 to 1.83 µM) | ≤ 0.25 µg/mL | ≥ 800 µg/mL | > 800 µg/mL
CCNC(=O)Nc1nc2cc(-c3cnc(N4CCC(C)(C(=O)O)CC4)nc3)cc(-c3nccnc3C)c2s1 [Compound 84] | 0.25 to 1 µg/mL (≈ 0.469 to 1.88 µM) | – | 200 µg/mL (≈ 375 µM) | 12.5 to 400 µg/mL (≈ 23.5 to 751 µM) | – | 1 to 16 µg/mL (≈ 1.88 to 30 µM) | 1 to 16 µg/mL (≈ 1.88 to 30 µM) | ≤ 0.25 µg/mL | ≥ 800 µg/mL | > 800 µg/mL

Source: US9181234B2, “Antibacterial compounds” (priority 2010, dated 2015)
